From patent US20120277296A1, “Selective CB2 Receptor Agonists for Use in the Prevention or Treatment of Alcoholic Liver Disease” (priority 2009, published 2012) come the findings set out here.

“Also recorded” adds a separate entry of the source.

In experiment [1] the test system is WT mice fed EtOH (EtOH-induced hepatic steatosis). Briefly: Chronic ethanol feeding model (modified Lieber-De Carli diet, 10 days): hepatic steatosis. Format: in vivo, mouse. The conditions noted are these: JWH-133 3 mg/kg daily intraperitoneal during 10 day ethanol feeding, vs. vehicle. The procedure: (§1) Animals. Female mice (8-10 week old) were used for the experiments and included wild type (WT) C57B1/6J mice (Janvier, France) and mice with a targeted mutation of the Cnr2 gene (Buckley et al. 2000). Homozygous Cnr2−/− animals were obtained from heterozygous Cnr2+/− mice that were backcrossed with WT C57Bl/6J animals over 10 generations, and further intercrossed to obtain homozygous animals. Genotyping was performed on tail genomic DNA using QuantiTect™ SYBR® Green PCR kit (Qiagen). Animals were housed in temperature and humidity controlled rooms, kept on a 12-h light/dark cycle and provided unrestricted amounts of food and water. Animal procedures were conducted in accordance with French government policies (Services Vétérinaires de la Santé et de la Production Animale, Ministère de l'Agriculture).
(§2) Chronic exposure to ethanol. […] Body weight and food intake were measured daily.
(§3) The impact of the CB2 agonist JWH-133 or its vehicle was evaluated in WT mice that were treated with a daily intraperitoneal injection of JWH-133 (3 mg/kg) or its vehicle during the 10 day feeding with ethanol. […] Body weight and food intake were measured daily. […]
Hepatic triglyceride quantification. […] Triglycerides were quantified with a triglyceride determination kit (Sigma), on liver samples from 10-15 animals per group.

Another experiment deals with TNF-α mRNA expression. The experiment in a line: Chronic ethanol feeding model: hepatic inflammation, TNF-α mRNA expression by RT-PCR. The conditions noted are these: WT mice fed EtOH, JWH-133 3 mg/kg daily intraperitoneal during 10 day ethanol feeding, vs. vehicle. Format: in vivo, mouse. As for the experimental part:
as §1, with “Animal procedures were conducted in accordance with French government policies (Services Vétérinaires de la Santé et de la Production Animale, Ministère de l'Agriculture).” left out
as §2, §3
RNA preparation and RT-PCR. […] Quantitative real time-PCR was carried out on a Light Cycler (Roche Diagnostics), as previously described (Julien et al. 2005). Oligonucleotide primers (MWG Biotech) for the following mouse genes were used: mouse Rn18S; mouse Tnf, PCR amplified products were analyzed on a 2% agarose gel and sequenced.

Turning to `CCCC(C)(C)c1ccc2c(c1)OC(C)(C)[C@@H]1CC=C(C)C[C@@H]21` [JWH-133, (6aR,10aR)-3-(1,1-dimethylbutyl)-6a,7,10,10a-tetrahydro-6,6,9-trimethyl-6Hdibenzo[b,d]pyran], in experiment [1], the hepatic triglyceride content result is given as “decrease; also recorded: strongly reduced” and the liver/body weight ratio entry is “decrease; also recorded: strongly reduced”. Further, in the experiment with TNF-α mRNA expression, the “TNF-α mRNA expression in liver” value is “prevents the increase; also recorded: reduced TNF-α mRNA levels to control levels”.
